Laboratory results published in the NIST ThermoML archive (doi:10.1021/je3002078).
Numbers after ± are expanded uncertainties.

Settings: Liquid; for mass density: 101.33 kPa, Vibrating tube method; for vapor or sublimation pressure: Ebulliometric method (Recirculating still)

mass density (303.15 K)	mass density (308.15 K)	vapor or sublimation pressure (442.28 K)	vapor or sublimation pressure (489.79 K)	vapor or sublimation pressure (474.01 K)	Structure (SMILES)	vapor or sublimation pressure (399.89 K)
1008.12 ± 0.51 kg/m3	1005.08 ± 0.51 kg/m3	95.3 ± 7.1 kPa	–	–	NCCO [2-aminoethan-1-ol]	–
1012.65 ± 0.51 kg/m3	1008.68 ± 0.51 kg/m3	–	95.3 ± 7.1 kPa	–	OCCc1ccccc1 [2-phenylethanol]	–
1023.45 ± 0.51 kg/m3	1013.34 ± 0.51 kg/m3	–	–	95.3 ± 7.1 kPa	CN1CCCC1=O [N-methylpyrrolidone]	–

Structure (SMILES)	mass density (303.15 K)	mass density (308.15 K)	vapor or sublimation pressure (442.28 K)	vapor or sublimation pressure (489.79 K)	vapor or sublimation pressure (474.01 K)	vapor or sublimation pressure (399.89 K)
OCCCl [1-chloro-2-hydroxyethane]	1192.48 ± 0.53 kg/m3	1186.44 ± 0.53 kg/m3	–	–	–	95.3 ± 7.1 kPa
